Consider 4 compounds from patent US11198869B2, “Angelman syndrome antisense treatment” (The Texas A&M University System, priority 2017, dated 2021).

For series [1], the system named is IPW. Description: IPW steady state RNA (qRT-PCR) in GABAergic iPSC-derived neurons. Particulars: 10-point dose curve 1 nM-30 μM; 14 DIV to 20 DIV.
Another series deals with SNORD115. As to the kind of experiment: SNORD115 steady state RNA (qRT-PCR) in GABAergic iPSC-derived neurons. Particulars: 10-point dose curve 1 nM-30 μM; 14 DIV to 20 DIV.
A further series has as its system SNRPN. Description: RNA-sequencing of Angelman syndrome iPSC neurons: SNRPN. Format: cell-based, human. The settings on record: 30 μM; six days post-treatment; RNA-seq. How it is done:
(§1) RNA was isolated using Qiagen RNAeasy Plus (74136, Qiagen, Hilden, Germany). RNA concentration was determined using Qubit Fluorometric Quantitation (Thermo Fisher Scientific) and RNA quality was assessed using a 4200 Agilent TapeStation (Agilent, Santa Clara, Calif.). RNA-sequencing libraries were generated using the Illumina TruSeq Stranded Total RNA kit (20020597, Illumina, Inc., San Diego, Calif.) according to the manufacturer's protocol. 75 base-pair paired-end sequencing was performed using a NextSeq 500 (IIlumina, San Diego, Calif.) at the Texas A&M Institute for Genome Sciences and Society Genomics core. Raw sequencing reads were processed using CASAVA. The resulting FASTQ sequences were examined using FASTQC. […]
(§2) To determine whether ASO-4.4.PS.L and ASO-6.1.PO-1.O affect the levels of RNA transcripts encoded by the PWS polycistronic transcript, RNA-sequencing was performed on AS iPS cells treated with each ASO and the steady state RNA levels of SNURF, SNRPN, the SNORD116 host-gene transcript (SNHG116), the SNORD116 snoRNAs, IPW, the SNORD115 host-gene transcript (SNHG115), the SNORD115 snoRNAs, and UBE3A-AS were quantified. UBE3A steady state RNA levels were also measured. […]

For series [2], the system named is SNORD116 host-gene transcript (SNHG116). As to the kind of experiment: RNA-sequencing of Angelman syndrome iPSC neurons: SNHG116. The settings on record: 30 μM; six days post-treatment; RNA-seq. Format: cell-based, human. As to the method: as §1, §2
For the next series, the system named is SNORD116 snoRNAs. Description: RNA-sequencing of Angelman syndrome iPSC neurons: SNORD116 snoRNAs. Format: cell-based, human. The settings on record: 30 μM; six days post-treatment; RNA-seq. How it is done:
as §1, §2

Series [3] concerns IPW. Description: RNA-sequencing of Angelman syndrome iPSC neurons: IPW. Format: cell-based, human. Particulars: 30 μM, RNA-seq; for Difference, IPW RNA level relative to vehicle: six days post-treatment. How it is done:
RNA was isolated using Qiagen RNAeasy Plus (74136, Qiagen, Hilden, Germany). RNA concentration was determined using Qubit Fluorometric Quantitation (Thermo Fisher Scientific) and RNA quality was assessed using a 4200 Agilent TapeStation (Agilent, Santa Clara, Calif.). RNA-sequencing libraries were generated using the Illumina TruSeq Stranded Total RNA kit (20020597, Illumina, Inc., San Diego, Calif.) according to the manufacturer's protocol. 75 base-pair paired-end sequencing was performed using a NextSeq 500 (IIlumina, San Diego, Calif.) at the Texas A&M Institute for Genome Sciences and Society Genomics core. Raw sequencing reads were processed using CASAVA. The resulting FASTQ sequences were examined using FASTQC.
Angelman syndrome induced pluripotent stem cells derived neurons Angelman syndrome iPS cells (AG1-0 iPSCs) (ECN001, Kerafast, Boston, Mass.) were co-cultured on irradiated murine embryonic fibroblasts in human embryonic stem cell medium [DMEM/F12 (11330-057, Gibco Biosciences, Dublin, Ireland), 20% Knockout Serum Replacement (10828-028, Thermo Fisher Scientific), 1× Non-essential amino acids, 2 mM L-glutamine, […] 2-Mercaptoethanol, and 4 μg/mL basic Fibroblast Growth Factor]. […]
as §2
Normalized FPKM (fragments per […] per million) values of the RefSeq gene annotation will be estimated using Cuffnorm with the default settings and the following option: −u. The FPKM values of each gene annotation was determined for each sample from the output file and used for descriptive and inferential statistics.

Another series has as its system SNORD115 snoRNAs. As to the kind of experiment: RNA-sequencing of Angelman syndrome iPSC neurons: SNORD115 snoRNAs. In kind it is cell-based, human. Particulars: 30 μM; six days post-treatment; RNA-seq. How it is done:
as §1, §2

For series [4], the system named is UBE3A-AS. Description: RNA-sequencing of Angelman syndrome iPSC neurons: UBE3A-AS. In kind it is cell-based, human. Particulars: 30 μM; RNA-seq; relative to vehicle. How it is done: as §1, §2
Another series concerns UBE3A. As to the kind of experiment: RNA-sequencing of Angelman syndrome iPSC neurons: UBE3A. In kind it is cell-based, human. The settings on record: 30 μM; six days post-treatment; RNA-seq. As to the method: as §1, §2
The subject of series [5] is UBE3A-AS. As to the kind of experiment: UBE3A-AS steady state RNA (TaqMan qRT-PCR) in GABAergic iPSC-derived neurons. The settings on record: for Relative Potency: relative to ASO-4.4.PS.L = 1. Format: cell-based, human.
Setting [6] is: Cluster 1 ASOs, 18 DIV to 24 DIV, parallel model, 4 Parameter logistic (Hill).
Setting [7] is: candidate ASOs, 18 DIV to 24 DIV.
The mark [8] stands for this setting: candidate ASOs, 18 DIV to 24 DIV, 4-parameter logistic (Hill).
Where [9] appears, read: candidate ASOs, treated 18 DIV, RNA 24 DIV, 10-point dose curve, n=2, full model, 4-parameter logistic (Hill).

Take `CC[C@@]1(O)C(=O)OCc2c1cc1n(c2=O)Cc2cc3c(CN(C)C)c(O)ccc3nc2-1` [Topotecan, reference compound]: in the series on IPW [1], the “effect on IPW RNA levels (in words)” value is “significant effect on SNORD116, IPW, SNORD115, and SNORD109A/B RNA levels that was dose dependent”. Moreover, the “effect on SNORD115 RNA levels (in words)” value with SNORD115 is “significant effect on SNORD116, IPW, SNORD115, and SNORD109A/B RNA levels that was dose dependent”.
Turning to “A^L*G^L*A^L*a*t*g*g*c*a*c*a*t*c*t*5mC^L*T^L*T^L*G^L (NNNATGGCACATCTNNNN; LNA gapmer, PS, 5-methylcytosine, chemistry not fully specified) [ASO-4.4.PS.L]”, the “Difference, SNRPN RNA level relative to vehicle” value with SNRPN was −0.02. In [2], the “Difference, SNHG116 RNA level relative to vehicle” value was −0.24. Also, the “Difference, SNORD116 RNA level relative to vehicle” value in the series on SNORD116 snoRNAs stood at 0.27. Further, in the series on IPW [3] (effect not significant), the “reduction of IPW levels” value came out at 1.5 fold. Further, in the series on IPW [3], the “Difference, IPW RNA level relative to vehicle” value was −0.49. The “Difference, SNORD115 RNA level relative to vehicle” value in the series on SNORD115 snoRNAs is recorded as −0.26. In the series on UBE3A-AS [4], the “effect on UBE3A-AS RNA levels” value is on record as −6.1 fold change. Also, the “Difference, UBE3A RNA level relative to vehicle” value in the series with UBE3A is on record as 0.90. In addition, the IC50 in the series on UBE3A-AS [5] (setting [6]) was 0.0503 µM; in the series on UBE3A-AS [5] (setting [9]) it was 0.0266 µM. In the series on UBE3A-AS [5] (Cluster 1 ASOs, parallel model), the “Relative Potency” value was found to be 1. Also, the “30 μM (Mean), normalized UBE3A-AS RNA level relative to vehicle” value in the series with UBE3A-AS [5] (setting [7]) is recorded as 0.05. Also, the “Emax (normalized UBE3A-AS RNA level relative to vehicle)” value in the series on UBE3A-AS [5] (setting [8]) is 0.0.
With “C^O*U^O*G^O*G^O-t*g*t*c*a*a*c*a*a*g-C^O*C^O*A^O*A^o [ASO-6.1.PO-1.O]”, the “Difference, SNRPN RNA level relative to vehicle” value in the series on SNRPN turned out to be 0.03. Moreover, the “Difference, SNHG116 RNA level relative to vehicle” value in series [2] is reported as −0.07. Also, in the series on SNORD116 snoRNAs, the “Difference, SNORD116 RNA level relative to vehicle” value is listed as −0.04. The “Difference, IPW RNA level relative to vehicle” value in the series on IPW [3] was 0.18. The “Difference, SNORD115 RNA level relative to vehicle” value with SNORD115 snoRNAs came to 0.24. Besides, in the series on UBE3A-AS [4], the “effect on UBE3A-AS RNA levels” value is −2.8 fold change. In the series on UBE3A, the “Difference, UBE3A RNA level relative to vehicle” value worked out at 0.74. Besides, the IC50 was found to be 0.199 µM with UBE3A-AS [5] (setting [6]) and 0.315 µM in the series on UBE3A-AS [5] (setting [9]). In the series on UBE3A-AS [5] (Cluster 1 ASOs, equivalence, two one-sided tests), the “IC50 Ratio relative to ASO-4.4.PS.L” value amounted to 0.86. Also, the “Relative Potency” value in the series with UBE3A-AS [5] (Cluster 1 ASOs, parallel model) is on record as 0.3. The “Limit Exceeded (equivalence of IC50 relative to ASO-4.4.PS.L)” value with UBE3A-AS [5] (Cluster 1 ASOs, two one-sided tests) is given as “Lower”. Further, the “30 μM (Mean), normalized UBE3A-AS RNA level relative to vehicle” value in the series on UBE3A-AS [5] (setting [7]) came to 0.04. Besides, in the series on UBE3A-AS [5] (setting [8]), the “Emax (normalized UBE3A-AS RNA level relative to vehicle)” value is recorded as −0.1.
Turning to “U^O*A^O*G^O*A^O*A^O*t*g*g*c*a*c*a*t*c*t*C^O*U^O*U^O*G^O*G^O [ASO-4]”, the “effect on IPW RNA levels (in words)” value in the series on IPW [1] was “significant effect on the RNA levels of IPW, SNORD115, and SNORD109A/B but not in a dose dependent manner”. Besides, in the series on SNORD115, the “effect on SNORD115 RNA levels (in words)” value is “significant effect on the RNA levels of IPW, SNORD115, and SNORD109A/B but not in a dose dependent manner”.
